Structures can show the parent of a compound that is named as a salt. Where two headings read alike, the source gives them in different places.

For one data set, the system named is −1 PRF of SARS-CoV-2. In words: microbe, parasite or virus in culture. The class given is cell-based.
The test system of a further data set is HEK293T cells. Kind of data set: Cell viability in the high-throughput screen (cell nuclei numbers). The note with it: 10 μM compound, cell nuclei numbers. On the procedure:
HEK293T cells were plated in 384 well plates at the density of 5,000 cells/well. Cells were treated by 10 μM candidate compounds 30 min before transfection of 15 ng mCherry-FSE-GFP(−1) plasmid DNA in each well. 24 hours after transfection, cell nuclei were stained with Hoechst dye. Cell nuclei, mCherry, and GFP signals were imaged using an automated fluorescent microscope with a 10x objective, and the acquired images were quantified using the CellProfiler image analysis package. Cell nuclei numbers were quantified as the metric for cell viability. Mean GFP and RFP intensity values were measured in all transfected cells, and GFP/mCherry mean intensity ratios were quantified as the metric for PRF efficiency. The mCherry-GFP fusion plasmid and the mCherry-FSE-GFP(0) plasmid were used as positive and negative controls for elevated and reduced GFP/mCherry ratios, respectively.

A further data set concerns SARS-CoV-2 FSE (−1 PRF). Kind of data set: cells. It is filed as cell-based.

`N[C@@H]1[C@H]2CN(c3nc4c(cc3F)c(=O)c(C(=O)O)cn4-c3ccc(F)cc3F)C[C@@H]12` [trovafloxacin]: the “activity on SARS-CoV-2 PRF efficiency, compared with merafloxacin” value in the data set on −1 PRF of SARS-CoV-2 (final concentration of 20 μM (FIGS. 3A and 3B)) is given as “less active”.
Turning to IVERMECTIN, the “PERCENT VIABILITY” value with HEK293T cells is 223.0%. Also, the “validated effect on −1 PRF in dual luciferase-based PRF reporter assay” value with −1 PRF of SARS-CoV-2 (repurchased screen candidates) was “enhancer”. Moreover, in the data set with SARS-CoV-2 FSE (−1 PRF), the “PERCENT EFFECT 2 (Decreased GFP/Red ratio)” value is −36.2% and the “PERCENT EFFECT (Increased GFP/Red Ratio)” value amounted to 15.8%.
Regarding `Nc1c2ccccc2nc2ccccc12` [AMINACRINE], the “PERCENT VIABILITY” value in the data set on HEK293T cells was 24.0%. Besides, the inhibition at 10 µM in the data set with SARS-CoV-2 FSE (−1 PRF) (Severe acute respiratory syndrome coronavirus 2, HEK-293T, 24 h, read-out: PERCENT EFFECT 2 (Decreased GFP/Red ratio)) is -39.3%. The activation at 10 µM with SARS-CoV-2 FSE (−1 PRF) (Severe acute respiratory syndrome coronavirus 2, HEK-293T, 24 h, read-out: PERCENT EFFECT (Increased GFP/Red Ratio)) was 20.3%.
As to `CC[C@]1(O)C[C@@H]2CN(CCc3c([nH]c4ccccc34)[C@@](C(=O)OC)(c3cc4c(cc3OC)N(C)[C@H]3[C@@](O)(C(N)=O)[C@H](O)[C@]5(CC)C=CCN6CC[C@]43[C@@H]65)C2)C1` [Vindesine Sulfate], the “PERCENT VIABILITY” value came to 26.1% in the data set on HEK293T cells and 21.3% in the data set on HEK293T cells (listed as Vindesine sulfate). For the same compound, the activation at 10 µM in the data set on SARS-CoV-2 FSE (−1 PRF) (Severe acute respiratory syndrome coronavirus 2, HEK-293T, 24 h; read-out: PERCENT EFFECT (Increased GFP/Red Ratio)) was 16.8%.
